Measured values from patent publication US8946209B2, “Compositions and methods for treating and preventing urolithiasis and conditions associated therewith” (OptMed, Inc., priority 2009, dated 2015).

Experiments:
[1] = tested on: human ureteral smooth muscle; experiment: Relaxant effect of diazepam on EFS-induced contraction of human ureteral muscle rings (Example 3); format: cell-based
Description: (§1) Ureteral muscle rings obtained from women undergoing nephrectomy or ureteral muscle strips harvested from adult male Wistar rats (n=8 samples of each) were mounted in 5 mL organ baths containing Krebs-Henseleit solution. The organ baths were kept at 37±1° C. and continuously aerated with 95% O2-5% CO2. After 60 minutes of equilibration, smooth muscle samples were exposed to 80 or 30 mM KCl (human and rat, respectively) to assess their viability. After washout and 30 additional minutes of equilibration, electrical field stimulation (EFS) was started. […] Time-matched controls were obtained exposing tissues to a solution of drug vehicle without diazepam (DMSO in distilled water). At the end of the experiment, the maximal relaxant capacities of each tissue were determined by exposure to 10 μM forskolin.

[2] = tested on: rat ureteral smooth muscle; experiment: Relaxant effect of diazepam on EFS-induced contraction of rat ureteral muscle strips (Example 3); format: cell-based, Wistar rats
Description: as §1

CN1C(=O)CN=C(c2ccccc2)c2cc(Cl)ccc21 [diazepam, 7-chloro-1,3-dihydro-1-methyl-5-phenyl-2H-1,4-benzodiazepin-2-one]
Emax ([1]; Homo sapiens, read-out: maximal relaxant effect (Emax), of the basal response to EFS): 98.4 ± 0.2% | IC50 ([1]; Homo sapiens, read-out: pIC50 for inhibition of EFS-induced contraction (converted)): 4.47 µM | restoration of baseline EFS-induced contractility after washout ([1]; human ureter, following total inhibition of tissue contraction by diazepam): restored after 3 washouts | Emax ([2]; read-out: maximal relaxant effect (Emax), of the basal response to EFS): 67.4 ± 5% | IC50 ([2]; read-out: pIC50 for inhibition of EFS-induced contraction (converted)): 1120 nM
